Reference: PubChem BioAssay (NCI)
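The compound was tested at five concentrations on cells cultured in 96-well plates, with a 48-hour exposure period. GI50 marks 50% less growth. At the TGI there is no net growth.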

Experiments:
Test in all cases: NCI tumour cell line growth inhibition, 48 h
HOP-18 NSCLC = system: HOP-18 NSCLC
LXFL 529 NSCLC = system: LXFL 529 NSCLC
M19-MEL melanoma = system: M19-MEL melanoma
XF 498 CNS = system: XF 498 CNS
DU-145 prostate = system: DU-145 prostate
HS 578T breast = system: HS 578T breast
MDA-MB-435 = system: MDA-MB-435
NCI/ADR-RES ovarian = system: NCI/ADR-RES ovarian
PC-3 prostate = system: PC-3 prostate
T-47D breast = system: T-47D breast

SMILES | TGI (HOP-18 NSCLC) [µM] | TGI (LXFL 529 NSCLC) [µM] | TGI (M19-MEL melanoma) [µM] | TGI (XF 498 CNS) [µM] | also measured
CN(C)c1ccc(/C=c2\sc3nnc(Cc4ccccc4)n3c2=O)cc1 | > 100 | > 100 | > 100 | > 100 | GI50 (HOP-18 NSCLC): > 100 µM; GI50 (LXFL 529 NSCLC): > 100 µM; GI50 (XF 498 CNS): > 100 µM
NNC(=O)N/N=C1/C(=O)N(c2ccc(Cl)c(Cl)c2)C(=O)C(=O)C1c1nc2ccccc2o1 (centres undefined) | > 100 | > 100 | > 100 | – | –
O=S1Cc2ccccc2CSS1 (centres undefined) | 89.1 | 27.2 | 44.9 | 34 | –
COC(=O)C(C(=O)C(=O)Nc1ccc(N)cc1[N+](=O)[O-])c1nc2ccc(Cl)cc2[nH]c1=O (centres undefined) | > 100 | – | > 100 | > 100 | –
C/C(=N\NS(=O)(=O)c1ccccc1)c1ccc[n+]([O-])n1 | > 100 | > 100 | > 100 | – | –
COc1ccc(S(=O)(=O)N/N=C/CN2C(=O)c3ccccc3C2=O)cc1 | – | > 100 | > 100 | > 100 | –
COc1c(OC2OC(CO)C(O)C(O)C2O)cc2c(c1OC)-c1ccc(OC)c(=O)cc1[C@@H](NC(C)=O)CC2 (some centres undefined) | > 100 | > 100 | > 100 | > 93 | –
CCCCCC/C(CC(=O)CCC(=O)NCCc1ccccc1)=N\NC(=O)c1ccc2ccccc2c1O | 63.9 | > 100 | 88.4 | > 100 | –
CCOc1ccccc1NC(=O)C(=O)c1c(O)c2ccc(O)cc2oc1=O | > 100 | > 100 | > 100 | – | –
CCCCCCC(=O)CC(=O)C(=O)Nc1ccccc1C | > 100 | > 100 | > 100 | > 100 | –
C=C1CC(CC(=O)C(C)CC2CC(=C)C(=O)O2)OC1=O (centres undefined) | 47.3 | 27.8 | 30.3 | 43.3 | –
CC(=O)CC(=O)ON(C)C(=O)Cc1ccccc1 | – | > 100 | > 100 | > 100 | –
Cc1c(C(=O)Nc2ccc(Cl)cc2)nc(N)nc1-c1cccc(Cl)c1 | > 100 | – | > 100 | – | –
CC1CCC2[C@@H](C)COC3O[C@]4(C)CCC1C32OO4 (some centres undefined) | > 100 | > 100 | – | – | –
CCOC(=O)C1C(=O)c2cccc(OC)c2C2COC(=O)N12 (centres undefined) | > 100 | > 100 | > 100 | > 100 | –
CCC12C=CCN3CCC4(C(=C(C(=O)OC)C1)Nc1ccccc14)[C@H]32 (some centres undefined) | > 100 | > 100 | > 100 | – | –
COc1ccc([Se]c2ccc(OC)cc2)cc1 | > 100 | – | > 100 | > 100 | –
CCOc1cc[n+](C(=C=[N-])C#N)cc1 | – | > 100 | > 100 | > 100 | –
CC(=O)OC1(C#N)CC2OC1C1NC21 (centres undefined) | – | > 100 | > 100 | > 100 | –
CCc1cccc(CC)c1NC(=O)C1=CNC(C)=C(C(=O)Nc2c(CC)cccc2CC)C1c1ccc(O)c(OC)c1 (centres undefined) | – | > 100 | > 100 | 67.3 | –

SMILES | TGI (HOP-18 NSCLC) [µM] | TGI (LXFL 529 NSCLC) [µM] | TGI (M19-MEL melanoma) [µM] | TGI (XF 498 CNS) [µM] | also measured
O=C(OCc1ccccc1)c1ccccc1-c1c2ccc(=O)cc-2oc2cc(OCc3ccccc3)ccc12 | – | > 100 | > 100 | 33.6 | –
C(=NCCN=Cc1cccc2ccccc12)c1cccc2ccccc12 | > 100 | > 100 | > 100 | > 100 | –
OCC(O)C(OC1OC(CO)C(O)C(O)C1O)c1nn(-c2ccc(Cl)cc2)c2nc3cc(Cl)ccc3nc12 (centres undefined) | – | > 100 | > 100 | > 100 | –
Cc1ccccc1NC(=O)CC(=O)n1nc(-c2ccccc2)c(N=Nc2ccc([N+](=O)[O-])cc2)c1-c1ccccc1 | 87.8 | > 100 | – | 51.7 | –
CC1=C(C(=O)NCc2ccccc2)C(c2ccccc2O)C(C(=O)NCc2ccccc2)=C(C)N1 | 60.1 | 28.7 | 35.7 | 31.2 | –
NC(C(=O)O)c1ccc(C(=O)O)cc1 (centres undefined) | – | > 100 | > 100 | > 100 | –
N#CC1([N+](=O)[O-])C=C1c1ccccc1 (centres undefined) | – | > 100 | > 100 | – | –
Nc1ncnc2c1ncn2C1OC(C(=O)OCCO)C(O)C1O (centres undefined) | – | – | – | – | TGI (DU-145 prostate): > 100 µM; TGI (HS 578T breast): > 100 µM; TGI (MDA-MB-435): > 100 µM; TGI (NCI/ADR-RES ovarian): > 100 µM; TGI (PC-3 prostate): > 100 µM; TGI (T-47D breast): > 100 µM
CC(=O)Nc1ccccc1S(=O)c1ccccc1 (centres undefined) | > 100 | > 100 | > 100 | > 100 | –
CC(=O)Nc1ccc(OCC(O)CO)cc1 (centres undefined) | > 100 | > 100 | > 100 | > 100 | –
O=C1C=C(OCC=C(Cl)Cl)C(=O)c2ccccc21 | – | – | – | – | GI50 (DU-145 prostate): 2.8 µM; TGI (DU-145 prostate): 8.94 µM; GI50 (HS 578T breast): 2.7 µM; TGI (HS 578T breast): 8.47 µM; GI50 (MDA-MB-435): 1.65 µM; TGI (MDA-MB-435): 3.04 µM; GI50 (NCI/ADR-RES ovarian): 3.94 µM; TGI (NCI/ADR-RES ovarian): > 51.7 µM; GI50 (PC-3 prostate): 5.14 µM; TGI (PC-3 prostate): > 100 µM; GI50 (T-47D breast): 2.4 µM; TGI (T-47D breast): > 29.6 µM
COn1cc(C(=O)N=C(SC)SC)c2ccccc21 | – | – | – | – | GI50 (DU-145 prostate): 30.9 µM; TGI (DU-145 prostate): > 100 µM; GI50 (HS 578T breast): 16.7 µM; TGI (HS 578T breast): 54.3 µM; GI50 (MDA-MB-435): 14 µM; TGI (MDA-MB-435): 39.7 µM; GI50 (NCI/ADR-RES ovarian): 18.2 µM; TGI (NCI/ADR-RES ovarian): 42.5 µM; GI50 (PC-3 prostate): 25.1 µM; TGI (PC-3 prostate): > 100 µM; GI50 (T-47D breast): 75.1 µM; TGI (T-47D breast): > 100 µM
Cc1ccc(SSCCCCS(=O)O)cc1 | > 100 | 25.5 | 64.5 | 32 | –
N#CC12CC3(CCC1CCC1(C2)OCCO1)OCCO3 (centres undefined) | > 100 | > 100 | > 100 | > 100 | –
CC1CC2(C)CC(=O)C1C1C(=O)N(CCN3CCOCC3)C(=O)C12 (centres undefined) | – | – | – | – | GI50 (DU-145 prostate): > 100 µM; TGI (DU-145 prostate): > 100 µM; GI50 (HS 578T breast): > 100 µM; TGI (HS 578T breast): > 100 µM; GI50 (MDA-MB-435): > 100 µM; TGI (MDA-MB-435): > 100 µM; GI50 (NCI/ADR-RES ovarian): > 100 µM; TGI (NCI/ADR-RES ovarian): > 100 µM; GI50 (PC-3 prostate): > 100 µM; TGI (PC-3 prostate): > 100 µM; GI50 (T-47D breast): > 100 µM; TGI (T-47D breast): > 100 µM
CN/N=C(/CC(=O)c1sc(NNC(C)=O)nc1C)C(=O)Nc1ccc(OC)cc1OC | – | > 100 | > 100 | > 100 | –
CCN(CC)c1ccc(N=C2C=CC(=C(C#N)C#N)c3ccccc32)c(C)c1 | 10.3 | – | 5.77 | 2.89 | –
COC(=O)C1=C(O)C(C(=O)OC)[C@@]2(O)[C@@H](C(=O)OC)C(c3ccccc3Cl)C[C@@H]1[C@@H]2C(=O)OC (some centres undefined) | – | – | – | – | GI50 (DU-145 prostate): 14.9 µM; TGI (DU-145 prostate): 32.9 µM; GI50 (HS 578T breast): 10.1 µM; TGI (HS 578T breast): 43.7 µM; GI50 (MDA-MB-435): 3.09 µM; TGI (MDA-MB-435): 8.82 µM; GI50 (NCI/ADR-RES ovarian): 3.16 µM; TGI (NCI/ADR-RES ovarian): 15.9 µM; GI50 (PC-3 prostate): 5.88 µM; TGI (PC-3 prostate): 36.5 µM; GI50 (T-47D breast): 11.6 µM; TGI (T-47D breast): 40.3 µM
ClCCCN1CCCCC1CCl (centres undefined) | > 100 | > 100 | > 100 | – | –
